Experiment [1] addresses A-Raf kinase (SEQ. ID No: 1) (Homo sapiens (Human), UniProt P10398, Y301D/Y302D). Put plainly: Biochemical Assay for A-Raf (2). The settings on record: Table J, biochemical assay (2); read-out: ARAF (2). The method, then:
Biochemical Assay for A-Raf (2)
Activity of A-Raf kinase (SEQ. ID No: 1) was determined spectroscopically using a coupled pyruvate kinase/lactate dehydrogenase assay that continuously monitors the ATP hydrolysis-dependent oxidation of NADH (e.g., Schindler et al., Science, 2000, 289, 1938-1942). Assays were conducted in 384-well plates (25 μL final volume) using 20 nM A-Raf (Eurofins), 1.5 units pyruvate kinase, 2.1 units lactate dehydrogenase, 1 mM phosphoenol pyruvate, 0.7 mM NADH, 100 nM MEK (SignalChem), and 1 mM ATP in assay buffer (100 mM Tris, pH 7.5, 15 mM MgCl2, 0.5 mM DTT, 0.1% octyl-glucoside, 0.002% (w/v) BSA, and 0.002% Triton X-100). Inhibition of A-Raf was measured by adding serial diluted test compound (final assay concentration of 1% DMSO). A decrease in absorption at 340 nm was monitored hourly for 4 h at 30° C. on a multi-mode microplate reader (BioTek). The reaction rate was calculated using the 3 to 4 h time frame. The reaction rate at each concentration of compound was converted to percent inhibition using controls (i.e., reaction with no test compound and reaction with a known inhibitor) and IC50 values were calculated by fitting a four-parameter sigmoidal curve to the data using Prism (GraphPad software).

Experiment [2] addresses C-Raf kinase (SEQ. ID NO: 3) (Homo sapiens (Human), UniProt P04049, Y340D/Y341D). Put plainly: Biochemical Assay for C-Raf (2). The settings on record: Table J, biochemical assay (2); read-out: CRAF (2). The method, then:
Biochemical Assay for C-Raf (2)
Activity of C-Raf kinase (SEQ. ID NO: 3) was determined spectroscopically using a coupled pyruvate kinase/lactate dehydrogenase assay that continuously monitors the ATP hydrolysis-dependent oxidation of NADH (e.g., Schindler et al., Science, 2000, 289, 1938-1942). Assays were conducted in 384-well plates (25 μL final volume) using 3.84 nM C-Raf (Eurofins), 1.5 units pyruvate kinase, 2.1 units lactate dehydrogenase, 1 mM phosphoenol pyruvate, 0.7 mM NADH, 50 nM MEK (SignalChem), and 1 mM ATP in assay buffer (100 mM Tris, pH 7.5, 15 mM MgCl2, 0.5 mM DTT, 0.1% octyl-glucoside, 0.002% (w/v) BSA, and 0.002% Triton X-100). Inhibition of C-Raf was measured by adding serial diluted test compound (final assay concentration of 1% DMSO). A decrease in absorption at 340 nm was monitored hourly for 4 h at 30° C. on a multi-mode microplate reader (BioTek). The reaction rate was calculated using the 2 to 3 h time frame. The reaction rate at each concentration of compound was converted to percent inhibition using controls (i.e., reaction with no test compound and reaction with a known inhibitor) and IC50 values were calculated by fitting a four-parameter sigmoidal curve to the data using Prism (GraphPad software).

C-Raf kinase (SEQ. ID NO: 3), sequence (P04049 307-648 Y340D/Y341D): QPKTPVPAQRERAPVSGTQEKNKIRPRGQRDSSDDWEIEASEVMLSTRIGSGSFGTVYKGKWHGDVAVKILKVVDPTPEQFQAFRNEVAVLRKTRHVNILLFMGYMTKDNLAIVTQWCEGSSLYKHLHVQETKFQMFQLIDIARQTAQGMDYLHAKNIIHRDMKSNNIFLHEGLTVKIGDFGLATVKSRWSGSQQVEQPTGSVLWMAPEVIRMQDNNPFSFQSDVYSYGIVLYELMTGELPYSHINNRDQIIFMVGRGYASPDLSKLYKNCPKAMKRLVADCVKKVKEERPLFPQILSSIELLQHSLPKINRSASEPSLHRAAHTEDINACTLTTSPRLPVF
A-Raf kinase (SEQ. ID No: 1), sequence (P10398 other isoform, or with tags, fused parts or gaps Y301D (already in the parent)/Y302D (already in the parent)): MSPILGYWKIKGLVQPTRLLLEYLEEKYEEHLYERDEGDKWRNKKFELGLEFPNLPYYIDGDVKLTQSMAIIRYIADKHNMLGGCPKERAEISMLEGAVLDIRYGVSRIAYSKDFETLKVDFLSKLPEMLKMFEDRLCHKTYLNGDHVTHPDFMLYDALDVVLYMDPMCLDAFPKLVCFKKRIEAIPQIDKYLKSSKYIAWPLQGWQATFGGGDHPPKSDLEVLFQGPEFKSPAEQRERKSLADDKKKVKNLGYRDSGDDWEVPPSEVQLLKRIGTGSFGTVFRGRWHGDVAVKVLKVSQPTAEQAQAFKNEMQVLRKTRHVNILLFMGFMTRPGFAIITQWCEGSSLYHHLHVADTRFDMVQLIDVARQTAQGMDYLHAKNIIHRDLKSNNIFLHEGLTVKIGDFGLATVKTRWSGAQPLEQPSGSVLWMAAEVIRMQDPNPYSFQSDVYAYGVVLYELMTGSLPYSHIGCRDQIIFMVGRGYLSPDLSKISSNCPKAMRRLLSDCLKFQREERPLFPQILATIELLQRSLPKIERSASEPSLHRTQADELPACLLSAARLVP

As for `CNC(=O)c1cc(-c2cc(-c3cc(NC(=O)c4ccnc(C(C)(C)F)c4)ccc3C)c(F)cn2)ccn1` [Example 469], the IC50 in experiment [1] was 1000 to 10000 nM; in experiment [2] it was no more than 100 nM.
For `CNC(=O)c1cc(-c2cc(-c3cc(NC(=O)c4ccnc(C(C)(C)F)c4)ccc3C)cc(C)n2)ccn1` [Example 470] the same measures were 1000 to 10000 nM and no more than 100 nM.
Turning to `Cc1ccc(NC(=O)c2ccnc(C(C)(C)F)c2)cc1-c1ccnc(-c2ccnc(C(=O)NCC#N)c2)c1` [Example 451], the IC50 in experiment [1] is 1000 to 10000 nM; in experiment [2], no more than 100 nM.
`Cc1ccc(NC(=O)c2ccnc(C(C)(C)F)c2)cc1-c1ccnc(-c2ccnc(C(N)=O)c2)c1` [Example 476]: the results for the IC50 in experiment [1] and in experiment [2] were 500 to 1000 nM and no more than 100 nM, respectively.
In the case of `Cc1ncc(NC(=O)c2ccnc(C(C)C)c2)cc1-c1ccnc(-c2ccnc(NC(=O)C3CC3)c2)c1` [Example 468], the IC50 in experiment [1] is 100 to 500 nM; in experiment [2], no more than 100 nM.
Take `Cc1ccc(NC(=O)c2ccnc(C(C)(C)F)c2)cc1-c1ccnc(-c2ccnc(C(=O)NCCO)c2)c1` [Example 448]: the IC50 in experiment [1] was 1000 to 10000 nM; in experiment [2], no more than 100 nM.
The matching figures for `CNC(=O)c1cc(-c2cc(-c3cc(NC(=O)c4ccnc(C5CC5)c4)ccc3C)ccn2)ccn1` [Example 460]: 500 to 1000 nM and no more than 100 nM.
For `Cc1ccc(NC(=O)c2ccnc(C(C)C)c2)cc1-c1ccnc(-c2ccnc(NC(=O)C3CC3)c2)c1` [Example 467] the same measures were 100 to 500 nM and no more than 100 nM.
With `Cc1ccc(NC(=O)c2ccnc(C(C)(C)F)c2)cc1-c1ccnc(-c2ccnc(C#N)c2)c1` [Example 447], the IC50 in experiment [1] was 1000 to 10000 nM; in experiment [2] it was no more than 100 nM.
On to `CNC(=O)c1cc(-c2cncc(-c3cc(NC(=O)c4ccnc(C(C)(F)F)c4)ccc3C)c2)ccn1` [Example 440], for which the IC50 in experiment [1] is 1000 to 10000 nM; in experiment [2] it was no more than 100 nM.
For `Cc1ncc(NC(=O)c2ccnc(C3(C#N)CC3)c2)cc1-c1ccnc(-c2ccnc(NC(=O)C3CC3)c2)c1` [Example 461] the same measures were 100 to 500 nM and no more than 100 nM.
The matching figures for `CNC(=O)c1cc(-c2cc(-c3cc(NC(=O)c4ccnc(C(C)(C)F)c4)ccn3)ccn2)ccn1` [Example 481]: 1000 to 10000 nM and 500 to 1000 nM.
The matching figures for `Cc1ccc(NC(=O)c2ccnc(C(C)(C)C#N)c2)cc1-c1ccnc(-c2ccnc(NC(=O)C3CC3)c2)c1` [Example 456]: 100 to 500 nM and no more than 100 nM.
Regarding `Cc1ncc(NC(=O)c2ccnc(C(C)(F)F)c2)cc1-c1ccnc(-c2ccnc(NC(=O)C3CC3)c2)c1` [Example 466], the IC50 in experiment [1] was 500 to 1000 nM; in experiment [2], no more than 100 nM.
The matching figures for `Cc1cc(-c2cc(NC(=O)c3ccnc(C(C)(C)F)c3)ccc2C)cc(-c2ccnc(C(N)=O)c2)n1` [Example 484]: 500 to 1000 nM and no more than 100 nM.
For `CNC(=O)c1cc(-c2cc(-c3cc(NC(=O)c4ccnc(C(C)(C)F)c4)cc(F)c3F)ccn2)ccn1` [Example 478] the same measures were 1000 to 10000 nM and 100 to 500 nM.
For `Cc1ccc(NC(=O)c2ccnc(C(C)(F)F)c2)cc1-c1ccnc(-c2ccnc(NC(=O)C3CC3)c2)c1` [Example 459] the same measures were 100 to 500 nM and no more than 100 nM.
For `CNC(=O)c1cc(-c2cc(-c3cc(NC(=O)c4ccnc(C5CC5)c4)cnc3C)ccn2)ccn1` [Example 462], the values for the IC50 in experiment [1] and in experiment [2] were 1000 to 10000 nM and no more than 100 nM, respectively.
For `Cc1ccc(NC(=O)c2ccnc(C(C)(C)F)c2)cc1-c1ccnc(-c2ccnc(C(=O)NC3CN(C)C3)c2)c1` [Example 450] the same measures were 1000 to 10000 nM and 100 to 500 nM.
For `CNC(=O)c1cc(-c2cncc(-c3cc(NC(=O)c4ccnc(C(C)(F)F)c4)ccc3C)c2)ncn1` [Example 439] the same measures were 1000 to 10000 nM and no more than 100 nM.
For `CNC(=O)c1cc(-c2cc(-c3cc(NC(=O)c4ccnc(C(C)C)c4)ccc3C)ccn2)ccn1` [Example 443] the same measures were 500 to 1000 nM and no more than 100 nM.
As for `CNC(=O)c1cc(-c2cc(-c3cc(NC(=O)c4ccnc(C(C)(C)F)c4)c(F)cc3F)ccn2)ccn1` [Example 482], the IC50 in experiment [1] was 500 to 1000 nM; in experiment [2], no more than 100 nM.
As to `CNC(=O)c1cc(-c2cc(-c3cc(NC(=O)c4ccnc(C(C)(C)F)c4)ccc3C)c(C)cn2)ccn1` [Example 472], the values for the IC50 in experiment [1] and in experiment [2] were 1000 to 10000 nM and 500 to 1000 nM, respectively.
For `CNC(=O)c1cc(-c2cc(-c3cc(NC(=O)c4ccnc(C(C)(C)F)c4)cc(F)c3C)ccn2)ccn1` [Example 480], the figures for the IC50 in experiment [1] and in experiment [2] were 1000 to 10000 nM and 100 to 500 nM, respectively.
Turning to `Cc1ncc(NC(=O)c2ccnc(C(C)(C)F)c2)cc1-c1ccnc(-c2ccnc(NC(=O)C3CC3)c2)c1` [Example 454], the results for the IC50 in experiment [1] and in experiment [2] were 500 to 1000 nM and no more than 100 nM, respectively.
For `Cc1ccc(NC(=O)c2ccnc(C(C)(C)F)c2)cc1-c1ccnc(-c2ccnc(NC(=O)C3CC3)c2)c1` [Example 455], the IC50 in experiment [1] was 100 to 500 nM; in experiment [2], no more than 100 nM.
As for `CNC(=N)c1cc(-c2cc(-c3cc(NC(=O)c4ccnc(C(C)(C)F)c4)ccc3C)ccn2)ccn1` [Example 452], the IC50 was 1000 to 10000 nM in experiment [1] and no more than 100 nM in experiment [2].
The matching figures for `CNC(=O)c1cc(-c2cc(-c3cc(NC(=O)c4ccnc(C(C)(C)F)c4)ccc3C(F)(F)F)ccn2)ccn1` [Example 471]: 100 to 500 nM and 1000 to 10000 nM.
The matching figures for `CNC(=O)c1cc(-c2cncc(-c3cc(NC(=O)c4ccnc(C(C)C)c4)ccc3C)c2)ncn1` [Example 446]: 1000 to 10000 nM and no more than 100 nM.
For `CNC(=O)c1cc(-c2cc(-c3cc(NC(=O)c4ccnc(C(C)(C)F)c4)cnc3C)ccn2)ccn1` [Example 444] the same measures were 1000 to 10000 nM and no more than 100 nM.
On to `CNC(=O)c1cc(-c2cc(-c3cc(NC(=O)c4cnnc(C(F)(F)F)c4)ccc3C)ccn2)ccn1` [Example 477], for which the values for the IC50 in experiment [1] and in experiment [2] were 1000 to 10000 nM and no more than 100 nM, respectively.
The matching figures for `CNC(=O)c1cc(-c2cncc(-c3cc(NC(=O)c4ccnc(C(C)(C)C#N)c4)ccc3C)c2)ccn1` [Example 442]: 1000 to 10000 nM and no more than 100 nM.
The matching figures for `CNC(=O)c1cc(-c2cc(-c3cc(NC(=O)c4ccnc(C(C)C)c4)cnc3C)ccn2)ccn1` [Example 465]: 1000 to 10000 nM and no more than 100 nM.
For `Cc1ccc(NC(=O)c2ccnc(C3CC3)c2)cc1-c1ccnc(-c2ccnc(NC(=O)C3CC3)c2)c1` [Example 458] the same measures were 100 to 500 nM and no more than 100 nM.
Take `CNC(=O)c1cc(-c2cc(-c3cc(NC(=O)c4ccnc(C(C)(C)F)c4)ccc3C)cc(OCCO)n2)ccn1` [Example 449]: the figures for the IC50 in experiment [1] and in experiment [2] were 1000 to 10000 nM and no more than 100 nM, respectively.
Turning to `CNC(=O)c1cc(-c2cc(-c3cc(NC(=O)c4ccnc(C(C)(F)F)c4)cnc3C)ccn2)ccn1` [Example 463], the IC50 was 1000 to 10000 nM in experiment [1] and no more than 100 nM in experiment [2].
For `CNC(=O)c1cc(-c2cncc(-c3cc(NC(=O)c4ccnc(C(C)C)c4)ccc3C)c2)ccn1` [Example 445] the same measures were 500 to 1000 nM and no more than 100 nM.
The matching figures for `Cc1cc(-c2cc(NC(=O)c3ccnc(C(C)(C)F)c3)ccc2C)cc(-c2ccnc(C#N)c2)n1` [Example 483]: 1000 to 10000 nM and no more than 100 nM.
`CNC(=O)c1cc(-c2cc(-c3cc(NC(=O)c4ccnc(C(C)(C)F)c4)ccc3F)ccn2)ccn1` [Example 479]: the IC50 is 100 to 500 nM in experiment [1] and no more than 100 nM in experiment [2].
The matching figures for `CNC(=O)c1cc(-c2cc(-c3cc(NC(=O)c4ccnc(C(C)(F)F)c4)ccc3C)ccn2)ccn1` [Example 441]: 500 to 1000 nM and no more than 100 nM.
For `CNC(=O)c1cc(-c2cc(-c3cc(NC(=O)c4ccnc(C5(C#N)CC5)c4)cnc3C)ccn2)ccn1` [Example 464] the same measures were 100 to 500 nM and no more than 100 nM.
For `CNC(=O)c1cc(-c2cc(-c3cc(NC(=O)c4ccnc(C(C)(C)F)c4)ccc3C)cnn2)ccn1` [Example 473] the same measures were 1000 to 10000 nM and no more than 100 nM.
